From US7998989B2, “2-Imino-1,3-thiazoline-based compounds and T-type calcium channel inhibitors containing the same” (Korea Institute of Science and Technology, priority 2007, dated 2011)

Columns and labels:
[1] = biological target: T1, α1G T-type calcium channel (Homo sapiens, UniProt O43497); assay: Assay for % inhibiting activity against T-type calcium channel using FDSS6000 (fluo-3 calcium imaging, KCl activation); assay type: cell-based; conditions: HEK293, 10 μM; HEK293 cells stably expressing α1G T-type calcium channel and Kir2.1; compounds of the examples; read-out: FDSS (% inhibition)/10uM
T1 construct: host or cells: HEK293
T1 sequence (O43497 whole entry): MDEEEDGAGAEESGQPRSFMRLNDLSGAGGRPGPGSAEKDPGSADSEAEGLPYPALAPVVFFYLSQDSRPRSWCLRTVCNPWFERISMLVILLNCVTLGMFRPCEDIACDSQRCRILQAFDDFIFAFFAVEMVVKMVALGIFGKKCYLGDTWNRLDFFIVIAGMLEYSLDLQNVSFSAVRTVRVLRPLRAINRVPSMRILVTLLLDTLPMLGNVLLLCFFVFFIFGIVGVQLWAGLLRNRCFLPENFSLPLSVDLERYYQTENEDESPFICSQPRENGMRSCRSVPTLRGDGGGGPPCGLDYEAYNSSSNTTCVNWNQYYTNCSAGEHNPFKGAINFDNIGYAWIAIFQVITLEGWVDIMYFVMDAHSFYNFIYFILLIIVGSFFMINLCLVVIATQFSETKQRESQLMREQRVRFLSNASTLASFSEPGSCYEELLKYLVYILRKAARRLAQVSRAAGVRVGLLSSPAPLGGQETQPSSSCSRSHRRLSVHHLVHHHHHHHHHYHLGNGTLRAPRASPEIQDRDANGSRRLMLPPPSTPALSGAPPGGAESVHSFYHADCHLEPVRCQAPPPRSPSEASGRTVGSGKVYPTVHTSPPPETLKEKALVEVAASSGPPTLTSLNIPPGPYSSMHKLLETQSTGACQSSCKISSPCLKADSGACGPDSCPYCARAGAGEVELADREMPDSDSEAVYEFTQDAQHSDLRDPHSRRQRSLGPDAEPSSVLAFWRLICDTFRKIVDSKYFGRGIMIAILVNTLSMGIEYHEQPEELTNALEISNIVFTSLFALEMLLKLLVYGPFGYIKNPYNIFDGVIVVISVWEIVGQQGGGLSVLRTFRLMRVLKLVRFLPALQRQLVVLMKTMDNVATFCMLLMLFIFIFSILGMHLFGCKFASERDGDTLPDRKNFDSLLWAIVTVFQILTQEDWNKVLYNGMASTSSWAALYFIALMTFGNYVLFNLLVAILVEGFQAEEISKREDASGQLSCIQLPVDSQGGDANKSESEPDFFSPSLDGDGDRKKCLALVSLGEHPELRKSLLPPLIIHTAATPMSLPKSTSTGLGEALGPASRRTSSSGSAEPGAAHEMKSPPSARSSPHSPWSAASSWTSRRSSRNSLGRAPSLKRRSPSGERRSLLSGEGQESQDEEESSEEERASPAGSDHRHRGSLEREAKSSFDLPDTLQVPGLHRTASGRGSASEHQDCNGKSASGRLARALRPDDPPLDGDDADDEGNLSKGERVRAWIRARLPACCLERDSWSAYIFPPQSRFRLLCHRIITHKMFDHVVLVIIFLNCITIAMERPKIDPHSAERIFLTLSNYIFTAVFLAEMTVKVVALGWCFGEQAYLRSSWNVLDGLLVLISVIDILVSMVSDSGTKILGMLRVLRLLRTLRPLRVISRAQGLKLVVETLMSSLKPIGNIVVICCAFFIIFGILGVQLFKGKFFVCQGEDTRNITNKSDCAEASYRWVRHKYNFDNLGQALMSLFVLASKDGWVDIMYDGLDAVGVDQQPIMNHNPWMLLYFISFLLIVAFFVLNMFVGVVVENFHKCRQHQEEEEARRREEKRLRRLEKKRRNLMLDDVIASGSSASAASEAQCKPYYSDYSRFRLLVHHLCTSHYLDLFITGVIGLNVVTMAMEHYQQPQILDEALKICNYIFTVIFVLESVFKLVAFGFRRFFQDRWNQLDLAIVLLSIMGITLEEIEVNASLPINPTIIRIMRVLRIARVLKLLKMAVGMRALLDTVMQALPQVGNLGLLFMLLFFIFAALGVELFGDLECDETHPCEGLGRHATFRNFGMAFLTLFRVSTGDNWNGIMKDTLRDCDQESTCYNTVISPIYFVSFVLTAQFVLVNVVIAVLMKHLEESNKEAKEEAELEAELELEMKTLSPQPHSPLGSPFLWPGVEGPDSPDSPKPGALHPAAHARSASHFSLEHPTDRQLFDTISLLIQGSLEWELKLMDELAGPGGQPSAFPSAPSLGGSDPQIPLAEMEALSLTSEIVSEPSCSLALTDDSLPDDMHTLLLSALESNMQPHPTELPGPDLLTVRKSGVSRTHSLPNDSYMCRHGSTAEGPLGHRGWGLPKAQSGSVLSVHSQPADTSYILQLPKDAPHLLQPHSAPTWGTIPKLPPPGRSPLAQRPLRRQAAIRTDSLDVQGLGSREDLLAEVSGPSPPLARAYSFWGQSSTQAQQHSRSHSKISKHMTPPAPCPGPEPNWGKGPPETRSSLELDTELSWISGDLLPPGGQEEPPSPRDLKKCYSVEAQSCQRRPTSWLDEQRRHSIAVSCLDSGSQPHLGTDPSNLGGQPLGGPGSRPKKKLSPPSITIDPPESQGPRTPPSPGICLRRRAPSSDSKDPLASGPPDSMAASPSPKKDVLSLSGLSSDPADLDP
Method: In the present invention, in order to examine an efficient inhibitor against the T-type calcium channel, a primary assay for T-type calcium channel inhibiting activity was conducted by a high-efficient assay using FDSS6000, wherein mammal HEK293 cell lines (originated from human kidney carcinoma cells) that specifically express α1G of the T-type calcium channel was used for primary assay. Through the primary assay, compounds that show meaningful inhibition effects were selected. The selected compounds were used in a second assay for T-type calcium channel inhibiting activity using an electrophysiological whole cell patch clamp method, wherein mammal HEK293 cell lines (originated from human kidney carcinoma cells) that specifically express α1G of the T-type calcium channel was used for the second assay. Mibefradil, which had been developed as a T-type calcium channel inhibitor, was used as a reference.
At 12-24 hours before being used for this assay, cells of HEK293 cell line (α1G cell line: KCTC 10519BP, Korean Collection for Type Cultures), which stably express α1G T-type calcium channel and Kir2.1, were sub-cultured in a poly-L-lysine treated 96-well plate with the density of 4×10^4 per well using a 96-well cell dispenser (Titertek). On the day of assay, the 96-well plate to which the cells were attached was washed three times with HEPES buffer solution (150 mM of NaCl, 5 mM of KCl, 1 mM of MgCl2, 2 mM of CaCl2, 10 mM of HEPES, 10 mM of glucose; pH 7.4) using a 96-well plate automatic washing device (Bio Tek), then reacted with HEPES buffer solution containing 5 μM fluo-3/AM and 0.001% Pluronic F-127 at room temperature for 1 hour, to label with fluorescent dye, and then further washed two times with HEPES buffer solution.
Thereafter, at 10 minutes before the measurement using device FDSS6000, washing with HEPES buffer solution containing 10 mM CaCl2 was conducted once more, and the final volume was adjusted to 81 μl. Besides the above 96-well plate containing the cells, two additional drug 96-well plates were provided, wherein the 96-well plates contained an inhibiting drug and KCl (final concentration: 75 mM) for activating the T-type calcium channel, respectively. Since most of cell-based HTS devices are equipped with a liquid application system for injection of drug, but have no liquid sucking system, the inhibiting drug to be tested and KCl were respectively provided at a five-times higher concentration in 10 mM CaCl2 HEPES buffer solution at the amount of 27 μl, diluted by five-times at the final cell plate volume of 135 μl, and then used in this test. The concrete method of measurement using FDSS6000 was as follows. After recording the reference value of 20 seconds, the change of intracellular Ca^2+ concentration that was induced by treatment of the inhibiting drug to be tested for 75 seconds followed by administration of KCl was measured, wherein the percentage (%) inhibition effect of the test drug, through estimating the area of ratio value of 340/380 in the control without treatment of the test drug, was 100%. As a reference drug, 10 μM mibefradil was used.
For accurate calcium imaging, the light source of 4 xenon lamps in FDSS6000 were radiated to selectively expose the cells to the excitation wavelength (340 nm and 380 nm) by a computer-controlled filter wheel. Data was obtained at intervals of 1.23 seconds. The emitter fluorescence light inflowed through a long-pass filter was obtained as an average 340/380 ratio value for each well in the 96-wells by using a CCD camera and a digital fluorescence analyzer in FDSS6000. All image data and analyses were obtained by using a FDSS6000-exclusive program from Hamamatsu Photonics.
The obtained results are shown in Table 2 (the results from the compounds according to the examples of the present invention) and Table 3 (the results from the compounds according to the comparative example where R6 is a phenyl group) [FDSS (% inhibition) 10 μM].

| inhibition at 10 µM [1] [%] | melting point [°C] | Structure (SMILES) |
| --- | --- | --- |
| 39.9 | 156 to 158 | COc1cccc(NC(=O)CC2CSC(=NC3CCCCC3)N2C)c1.Cl (centres unmarked) [KHG24076, (2-cyclohexylimino-3-methyl-1,3-thiazolidine-4-yl)-N-(3-methoxyphenyl)-acetamide hydrochloride] |
| 38.3 | 206 to 208 | CN1C(=NC2CCCCC2)SCC1CC(=O)Nc1ccc(F)cc1F.Cl (centres unmarked) [KHG24081, (2-cyclohexylimino-3-methyl-1,3-thiazolidine-4-yl)-N-(2,4-difluorophenyl)-acetamide hydrochloride] |
| 37.4 | 220 to 221 | Cc1ccccc1CNC(=O)CC1CSC(=NC2CCCCC2)N1C.Cl (centres unmarked) [KHG24082, (2-cyclohexylimino-3-methyl-1,3-thiazolidine-4-yl)-N-(2-methylbenzyl)-acetamide hydrochloride] |
| 52.6 | 241 to 242 | CCOC(=O)CCOc1cccc(NC(=O)CC2CSC(=NC3CCCCC3)N2C)c1.Cl (centres unmarked) [KHG24085, (2-cyclohexylimino-3-methyl-1,3-thiazolidine-4-yl)-N-(3-ethoxycarbonylethoxyphenyl)-acetamide hydrochloride] |
| 43.2 | 215 to 216 | CN1C(=NC2CCCCC2)SCC1CC(=O)NCc1ccc(Cl)c(Cl)c1.Cl (centres unmarked) [KHG24088, (2-cyclohexylimino-3-methyl-1,3-thiazolidine-4-yl)-N-(3,4-dichlorobenzyl)-acetamide hydrochloride] |
| 32.1 | 233 to 234 | COc1ccc(NC(=O)CC2CSC(=NC3CCCCC3)N2C)cc1OC.Cl (centres unmarked) [KHG24090, (2-cyclohexylimino-3-methyl-1,3-thiazolidine-4-yl)-N-(3,4-dimethoxyphenyl)-acetamide hydrochloride] |
| 30.3 | 210 to 212 | Cc1ccc(NC(=O)CC2CSC(=NC3CCCCC3)N2C)cc1F.Cl (centres unmarked) [KHG24091, (2-cyclohexylimino-3-methyl-1,3-thiazolidine-4-yl)-N-(3-fluoro-4-methylphenyl)-acetamide hydrochloride] |
| 30.5 | 209 to 210.5 | CN1C(=NC2CCCC2)SCC1CC(=O)Nc1ccc(F)cc1Cl.Cl (centres unmarked) [KHG24095, (2-cyclopentylimino-3-methyl-1,3-thiazolidine-4-yl)-N-(2-chloro-4-fluorophenyl)-acetamide hydrochloride] |
| 50.5 | 228 to 228.5 | CN1C(=NC2CCCC2)SCC1CC(=O)Nc1ccc(Br)cc1.Cl (centres unmarked) [KHG24098, (2-cyclopentylimino-3-methyl-1,3-thiazolidine-4-yl)-N-(4-bromophenyl)-acetamide hydrochloride] |
| 58.2 | 230 to 230.5 | CN1C(=NC2CCCC2)SCC1CC(=O)Nc1ccc(Oc2ccccc2)cc1.Cl (centres unmarked) [KHG24099, (2-cyclopentylimino-3-methyl-1,3-thiazolidine-4-yl)-N-(4-phenoxyphenyl)-acetamide hydrochloride] |
| 60.8 | 231 to 232.5 | CN1C(=NC2CCCC2)SCC1CC(=O)Nc1cc(Cl)cc(Cl)c1.Cl (centres unmarked) [KHG24100, (2-cyclopentylimino-3-methyl-1,3-thiazolidine-4-yl)-N-(3,5-dichlorophenyl)-acetamide hydrochloride] |
| 45 | 214 to 216 | CN1C(=NC2CCCC2)SCC1CC(=O)Nc1cc(Cl)ccc1F.Cl (centres unmarked) [KHG24103, (2-cyclopentylimino-3-methyl-1,3-thiazolidine-4-yl)-N-(5-chloro-2-fluorophenyl)-acetamide hydrochloride] |
| 34.3 | 234.5 to 236 | CN1C(=NC2CCCC2)SCC1CC(=O)Nc1cc([N+](=O)[O-])ccc1F.Cl (centres unmarked) [KHG24104, (2-cyclopentylimino-3-methyl-1,3-thiazolidine-4-yl)-N-(2-fluoro-5-nitrophenyl)-acetamide hydrochloride] |
| 40.4 | 228 to 230.5 | CN1C(=NC2CCCC2)SCC1CC(=O)Nc1ccc(Cl)cc1F.Cl (centres unmarked) [KHG24105, (2-cyclopentylimino-3-methyl-1,3-thiazolidine-4-yl)-N-(4-chloro-2-fluorophenyl)-acetamide hydrochloride] |
| 49.4 | 215 to 216 | CN1C(=NC2CCCC2)SCC1CC(=O)Nc1ccc(Cl)cc1.Cl (centres unmarked) [KHG24106, (2-cyclopentylimino-3-methyl-1,3-thiazolidine-4-yl)-N-(4-chlorophenyl)-acetamide hydrochloride] |
| 44.4 | 207 | CN1C(=NC2CCCCC2)SCC1CC(=O)Nc1cccc([N+](=O)[O-])c1.Cl (centres unmarked) [KHG24108, (2-cyclohexylimino-3-methyl-1,3-thiazolidine-4-yl)-N-(3-nitrophenyl)-acetamide hydrochloride] |
| 48.4 | 238 to 239.5 | CN1C(=NC2CCCCC2)SCC1CC(=O)Nc1cccc(F)c1.Cl (centres unmarked) [KHG24109, (2-cyclohexylimino-3-methyl-1,3-thiazolidine-4-yl)-N-(3-fluorophenyl)-acetamide hydrochloride] |
| 67.7 | 237 to 238 | Cc1cc(NC(=O)CC2CSC(=NC3CCCCC3)N2C)ccc1Br.Cl (centres unmarked) [KHG24111, (2-cyclohexylimino-3-methyl-1,3-thiazolidine-4-yl)-N-(4-bromo-3-methylphenyl)-acetamide hydrochloride] |
| 30.3 | 200 to 201 | CN1C(=NC2CCCCC2)SCC1CC(=O)NCc1ccc(F)cc1.Cl (centres unmarked) [KHG24112, (2-cyclohexylimino-3-methyl-1,3-thiazolidine-4-yl)-N-(4-fluorobenzyl)-acetamide hydrochloride] |
| 49.9 | 213 to 215.5 | CC(C)c1ccc(NC(=O)CC2CSC(=NC3CCCC3)N2C)cc1.Cl (centres unmarked) [KHG24115, (2-cyclopentylimino-3-methyl-1,3-thiazolidine-4-yl)-N-(4-isopropylphenyl)-acetamide hydrochloride] |
| 65.4 | 216 to 217.5 | CCCCc1ccc(NC(=O)CC2CSC(=NC3CCCC3)N2C)cc1.Cl (centres unmarked) [KHG24116, (2-cyclopentylimino-3-methyl-1,3-thiazolidine-4-yl)-N-(4-n-butylphenyl)-acetamide hydrochloride] |
| 35.7 | 219.5 to 220 | CN1C(=NC2CC2)SCC1CC(=O)Nc1ccc(Oc2ccccc2)cc1.Cl (centres unmarked) [KHG24141, (2-cyclopropylimino-3-methyl-1,3-thiazolidine-4-yl)-N-(4-phenoxyphenyl)-acetamide hydrochloride] |
| 33.9 | 227.5 to 228.5 | CCCCc1ccc(NC(=O)CC2CSC(=NC3CC3)N2C)cc1.Cl (centres unmarked) [KHG24152, (2-cyclopropylimino-3-methyl-1,3-thiazolidine-4-yl)-N-(4-n-butylphenyl)-acetamide hydrochloride] |
| 36.7 | 180 to 182 | CN1C(=NC2CCCC2)SCC1CC(=O)NCc1ccc(Cl)cc1.Cl (centres unmarked) [KHG24157, (2-cyclopentylimino-3-methyl-1,3-thiazolidine-4-yl)-N-(4-chlorobenzyl)-acetamide hydrochloride] |
| 36 | 221.3 | CN1C(=NCCc2ccccc2)SCC1CC(=O)Nc1cc(C(F)(F)F)cc(C(F)(F)F)c1.Cl (centres unmarked) [KHG24216, (2-phenethylimino-3-methyl-1,3-thiazolidine-4-yl)-N-(3,5-ditrifluoromethylphenyl)-acetamide hydrochloride] |
